For the data set the following is noted: Liquid, Closed cell (Static) method.

± gives the expanded uncertainty stated by the source.

The vapor or sublimation pressure is the pressure of vapour in equilibrium with the condensed phase.

For `CC#N` [acetonitrile], the “vapor or sublimation pressure” value (305.51 K) was 16.47 ± 0.22 kPa, the “vapor or sublimation pressure” value (323.12 K) stood at 33.71 ± 0.25 kPa and the “vapor or sublimation pressure” value (353.13 K) was determined as 96.17 ± 0.37 kPa.

The record behind these values is the NIST ThermoML archive (doi:10.1016/j.jct.2004.07.014).
